Reference: patent US20260374792A1, “PHENYL-FREE BISCATIONIC QUATERNARY PHOSPHONIUM COMPOUNDS AS ANTIMICROBIAL AGENTS” (priority 2022, published 2026)
Read-outs that look alike come from different tables or passages of the source.

How the values were obtained:
[1] = test system: P. aeruginosa (PAO1); assay: MIC against P. aeruginosa; assay type: cell-based; conditions: Pseudomonas aeruginosa
Protocol: (§1) The term “minimum inhibitory concentration (MIC)” means the lowest concentration of an antimicrobial agent that will inhibit the visible growth of a microorganism after overnight incubation. MIC values against bacteria, for example, the Gram-positive Staphylococcus aureus and Enterococcus faecalis and the Gram-negative Escherichia coli and Pseudomonas aeruginosa were determined by standard methods. See also P. A. Wayne, Methods for Dilution Antimicrobial Tests for Bacteria that Grow Aerobically; Approved Standard, Ninth Edition, 2012, CLSI Document M07-A9, Vol. 32 No. 2.
(§2) Biological testing procedures were adapted from prior work by Melander and coworkers. For all biological assays, laboratory strains of methicillin-susceptible Staphylococcus aureus MSSA (SH1000), Staphylococcus aureus CA-MRSA (USA300-0114), Staphylococcus aureus HA-MRSA (ATCC 33591), Escherichia coli (MC4100), Enterococcus faecalis (OG1RF), Acinetobacter baumannii (ATCC 17978), were grown with shaking at 37 °C overnight from freezer stocks in 5 mL of the indicated media: SH1000, OG1RF, MC4100, USA300-0114, and ATCC 17978 were grown in BDTM Mueller-Hinton broth (MHB), whereas ATCC 33591 was grown in BDTM tryptic soy broth (TSB). The inoculum were then streaked onto Mueller-Hinton agar (MHA) plates and grown overnight at 37 °C. From the plates, single colonies were selected, diluted into 50 mL of fresh media and grown overnight at 37 °C with shaking for use in the MIC assays. Optical density (OD) measurements were obtained using a SpectraMax iD3 plate reader (Molecular Devices, United States).
(§3) Compounds were serially diluted two-fold from stock solutions (1.0 mM) to yield twelve 100 μL test concentrations, wherein the starting concentration of dimethyl sulfoxide (DMSO) was 2.5%. Overnight S. aureus, E. faecalis, E. coli, A. baumannii, USA300-0114 (CA-MRSA), and ATCC 33591 (HA-MRSA) cultures were diluted to ca. 10^6 CFU/mL in MHB or TSB and regrown to mid-exponential phase, as determined by optical density recorded at 600 nm (OD600). All cultures were then diluted again to ca. 10^6 CFU/mL and 100 μL were inoculated into each well of a U-bottom 96-well plate (Corning, 351177) containing 100 μL of compound solution. Plates were incubated statically at 37 °C for 72 hours upon which wells were evaluated visually for bacterial growth. The MIC was determined as the lowest concentration of compound resulting in no bacterial growth visible to the naked eye, based on the highest value in three independent experiments. Aqueous DMSO controls were conducted as appropriate for each compound.
(§4) The prepared library of biscationic amphiphilic compounds was assessed for performance as antibacterial disinfectants by determining the minimum inhibitory concentration (MIC) for each against a panel of bacteria. The bacteria selected for the study were chosen to evaluate the broad spectrum antimicrobial performance of the QPCs, and therefore, included both Gram-positive and Gram-negative bacterial strains, including those with known antimicrobial resistance mechanisms. These bacteria include the Gram-positive strains of methicillin-susceptible Staphylococcus aureus [MSSA; SH1000], community-acquired methicillin-resistant Staphylococcus aureus [CA-MRSA; USA 300-0114], hospital-acquired methicillin-resistant Staphylococcus aureus [HA-MRSA; ATCC 33591] and the […], Escherichia coli [MC4100], Acinetobacter baumannii [ATCC 17498] and Pseudomonas aeruginosa [PAO1].

[2] = test system: E. faecalis (OG1RF); assay: MIC against E. faecalis; assay type: cell-based; conditions: Enterococcus faecalis, 72 h
Protocol: as §1, §2, §3, §4

[3] = test system: E. coli (MC4100); assay: MIC against E. coli; assay type: cell-based; conditions: Escherichia coli, 72 hours, 37 °C
Protocol: as §1, §2, §3, §4

[4] = test system: HA-MRSA (ATCC 33591); assay: MIC against hospital-acquired methicillin-resistant S. aureus (HA-MRSA); assay type: cell-based; conditions: Staphylococcus aureus, 72 h
Protocol: as §1, §2, §3, §4

[5] = test system: MSSA (SH1000); assay: MIC against methicillin-susceptible S. aureus (MSSA); assay type: cell-based; conditions: Staphylococcus aureus
Protocol: as §1, §2, §3, §4

[6] = test system: red blood cells; assay: Red Blood Cell (RBC) Lysis Assay (lysis20); assay type: cell-based, sheep; conditions: concentration inducing 20% RBC lysis; sheep blood, 1 hour, 37 °C
Protocol: RBC lysis assays were performed on mechanically defibrinated sheep blood (Hemostat Labs: DSB030). An aliquot of 1.5 mL blood was placed into a microcentrifuge tube and centrifuged at 3,800 rpm for ten minutes. The supernatant was removed, and the cells were resuspended with 1 mL of phosphate-buffered saline (PBS). The suspension was centrifuged as described above, the supernatant was removed, and cells were resuspended 4 additional times in 1 mL PBS. The final cell suspension was diluted twentyfold with PBS. Compounds were serially diluted with PBS two-fold from stock solutions (1.0 mM) to yield 100 μL of twelve test concentrations on a flat-bottom 96-well plate (Corning, 351172), wherein the starting concentration of DMSO was 2.5%. To each of the wells, 100 μL of the twentyfold suspension dilution was then inoculated. TritonX (1% by volume) served as a positive control (100% lysis marker) and sterile PBS served as a negative control (0% lysis marker). Samples were then placed in an incubator at 37 °C and shaken at 200 rpm. After 1 hour, the samples were centrifuged at 3,800 rpm for ten minutes. The absorbance of the supernatant was measured with a UV spectrometer at a 540 nm wavelength. The concentration inducing 20% RBC lysis was then calculated for each compound based upon the absorbances of the TritonX and PBS controls. Aqueous DMSO controls were conducted as appropriate for each compound.
The potential cytotoxicity of the compounds was also considered with the evaluation of hemolysis (lysis20) assays with 20% lysis of red blood cells serving as an indicator of potentially toxic compounds. Finally, the bioactivity of these compounds were benchmarked against a commercial benzalkonium chloride source (BAC; 70% benzyldimethyldodecylammonium chloride, and 30% benzyldimethyltetradecylammonium chloride) as well as some previously reported disinfectant compounds from the inventors' groups; included were bisQPC ^PhP6P-10,10 as well as ^PhP2P-10,10 and 12(2)12. A detailed description of the experimental procedures used to evaluate bioactivity and hemolysis assays are described above.

[7] = test system: A. baumannii; assay: MIC against A. baumannii; assay type: cell-based; conditions: Acinetobacter baumannii, 72 h
Protocol: as §1, §2, §3, §4

[8] = test system: CA-MRSA (USA300-0114); assay: MIC against community-acquired methicillin-resistant S. aureus (CA-MRSA); assay type: cell-based; conditions: Staphylococcus aureus, 72 h
Protocol: as §1, §2, §3, §4

[9] = P. aeruginosa (PAO1), 72 hours, 37 °C, read-out: MIC
[10] = MSSA (SH1000), 72 hours, 37 °C, read-out: MIC

| SMILES | MIC ([1]; PAO1, 72 h) [µM] | MIC [2] [µM] | MIC [3] [µM] | MIC [4] [µM] | MIC ([5]; MSSA, 72 h) [µM] | Lysis20 [6] [µM] | MIC [7] [µM] | MIC [8] [µM] | MIC [1, 9] [µM] | MIC [5, 10] [µM] |
| --- | --- | --- | --- | --- | --- | --- | --- | --- | --- | --- |
| CCCCCCCCCCCCCCCC[P+](CC)(CC)CC[P+](CC)(CC)CCCCCCCCCCCCCCCC [^EtP2P-16,16] | 125 | 63 | 125 | 32 | 16 | 16 | 260 | 16 | – | – |
| CCCCCCCCCCCCCCCC[P+](C)(C)CC[P+](C)(C)CCCCCCCCCCC [^MeP2P-16,16] | – | 250 | 250 | 63 | – | 125 | > 250 | 32 | > 250 | 32 |
| CCCCCCCCCCC[P+](C)(C)CC[P+](C)(C)CCCCCCCCCCC [^MeP2P-11,11] | – | 2 | 4 | 1 | – | 16 | 16 | 1 | 8 | 2 |
| CCCCCCCCCC[P+](CC[P+](CCCCCCCCCC)(C1CCCCC1)C1CCCCC1)(C1CCCCC1)C1CCCCC1 [^CyP2P-10,10] | – | 8 | 8 | 1 | – | 16 | 8 | 1 | 8 | 1 |
| CCCCCCCCCCC[P+](CC)(CC)CC[P+](CC)(CC)CCCCCCCCCCC [^EtP2P-11,11] | – | 4 | 4 | 2 | – | 16 | 8 | 1 | 16 | 1 |
| CCCCCCCCCCCCCC[P+](CC[P+](CCCCCCCCCCCCCC)(C1CCCCC1)C1CCCCC1)(C1CCCCC1)C1CCCCC1 [^CyP2P-14,14] | – | 32 | 63 | 2 | – | 8 | 63 | 4 | 63 | 4 |
| CCCCCCCCCC[P+](C)(C)CC[P+](C)(C)CCCCCCCCCC [^MeP2P-10,10] | – | 16 | 16 | 2 | – | 63 | 63 | 2 | 32 | 2 |
| CCCCCCCCCCCC[P+](CC[P+](CCCCCCCCCCCC)(C1CCCCC1)C1CCCCC1)(C1CCCCC1)C1CCCCC1 [^CyP2P-12,12] | – | 16 | 8 | 2 | – | 16 | 4 | 2 | 16 | 2 |
| CCCCCCCC[P+](CC[P+](CCCCCCCC)(C1CCCCC1)C1CCCCC1)(C1CCCCC1)C1CCCCC1 [^CyP2P-8,8] | – | 63 | 63 | 8 | – | 125 | 125 | 2 | 250 | 2 |
| CCCCCCCCCC[P+](CC)(CC)CC[P+](CC)(CC)CCCCCCCCCC [^EtP2P-10,10] | – | 16 | 16 | 8 | – | 63 | 32 | 1 | 32 | 2 |
| CCCCCCCC[P+](CC)(CC)CC[P+](CC)(CC)CCCCCCCC [^EtP2P-8,8] | – | > 250 | > 250 | 250 | – | 250 | > 250 | 125 | > 250 | 63 |
| CCCCCCCCC[P+](C)(C)CC[P+](C)(C)CCCCCCCCC [^MeP2P-9,9] | – | 125 | 125 | 16 | – | 250 | 250 | 8 | > 250 | 8 |
| CCCCCCCC[P+](C)(C)CC[P+](C)(C)CCCCCCCC [^MeP2P-8,8] | – | > 250 | > 250 | 250 | – | 250 | > 250 | 125 | > 250 | 125 |
